Reference: patent publication US12209180B2, “Bis-octahydrophenanthrene carboxamide derivatives and protein conjugates thereof for use as LXR agonists” (REGENERON PHARMACEUTICALS, INC., priority 2018, dated 2025)
Read-outs that look alike come from different tables or passages of the source.

Tests used:
Solubility in water = format: physicochemical
LXR [1] = tested on: T1, LXR; assay: Cell-based LXR luciferase reporter assay, LXR agonists (Example 16a); set-up: species or system human; conditions: Table 5a; for EC50: differentiated THP-1/LXR-Luc cells, 48 h; for S/N: highest RLU on dose response curve / RLU in untreated wells
T1 construct: EC50 (M); S/N; other: differentiate
Experimental: LXR agonists described herein were evaluated in a cell-based LXR responsive luciferase reporter assay. To generate the assay cell line, an LXR regulated luciferase reporter gene [Cignal Lenti LXR Reporter (luc) kit (Qiagen, Cat #CLS-001L)] was transduced into THP1 cells and the cells were selected for two weeks in puromycin. The lentivirus expresses the firefly luciferase gene under the control of a basal promoter and tandem repeats of the LXR transcriptional response element. The resulting cell line is referred to as THP1/LXR-Luc cells. For the assay, THP1/LXR-Luc cells were seeded onto 96-well plates at 40,000 cells/well in media containing RPMI supplemented with 10% FBS and penicillin/streptomycin and were then differentiated with 200 nM Phorbol Myristate Acetate (PMA) for 3 days. The media was subsequently removed and replaced with 80 μL of fresh media without PMA. Three-fold serial dilutions of free payloads were prepared in 100% DMSO, transferred to fresh growth media, and 20 μL were added to the cells at a final constant DMSO concentration of 0.2% and free payloads at final concentrations ranging from 100 nM to 0.015 nM. The last well in the plate served as blank control containing only the media and 0.2% DMSO (untreated well) and was plotted as a continuation of the 3-fold serial dilution. Forty-eight hours later, luciferase activity was determined after the addition of One-Glo™ reagent (Promega, Cat #E6130) to each well. Relative light units (RLUs) were measured on an Envision luminometer (PerkinElmer) and EC50 values were determined using a four-parameter logistic equation over a 10-point dose response curve (GraphPad Prism). The signal to noise (S/N) was determined by taking the ratio of the highest RLU on the dose response curve to the RLU in the untreated wells.

THP-1 = assay: Activation of cholesterol efflux (BODIPY-cholesterol) in differentiated THP1 macrophages; format: cell-based, human
Experimental: The ability of anti-MSR1-LXR agonist ADCs to activate cholesterol efflux in a human macrophage cell line (THP-1; ATTC Catalog #TIB-202) were assessed using a fluorescent cholesterol analog. […] Cells were differentiated into macrophages by treatment with 100 nM Phorbol-12 myristate 13-acetate (Sigma, Catalog #P8139), which was added to the media (described above), for 96 hours. […] Percentage of BODIPY-cholesterol efflux was calculated using the following formula: [fluorescence in acceptor media/(fluorescence in acceptor media+fluorescence in cell lysate)]×100.

[2] = Stability of isolated compound in buffer; format: physicochemical; conditions: HCl salt; even under basic buffer (pH>7)
Experimental: To a solution compound 141 (0.30 g, 0.33 mmol) in acetonitrile (5 mL) was added a solution of HCl in dioxane (4 N, 3 mL). The reaction mixture was stirred at room temperature for 3 hours until Boc was totally removed according to LCMS. The volatiles were removed, and the residue was purified by reversed phase flash chromatography (0-100% acetonitrile in water) to give compound 142 as HCl salt (0.19 g, 73% yield), as a white solid, which was not stable, even under basic buffer (pH>7). ESI m/z: 717.2 (M+H)^+.

LXR [3] = tested on: T1, LXR; assay: THP1/LXR-Luc reporter assay, anti-MSR1 LXR agonist ADCs (Example 17); format: cell-based, human; conditions: differentiated THP-1/LXR-Luc cells, Table 6
[4] = Homo sapiens, THP-1, after 24 hours, read-out: cholesterol efflux EC50
[5] = Homo sapiens, differentiated THP-1 macrophages, 24-hour treatment, Table 8, read-out: Cholesterol Efflux activation EC50

## CC(C)[C@H](NC(=O)[C@@H](CCCCNC(=O)COC1CCCCCc2c1nnn2CC1OC2OC3C(CO)OC(OC4C(CO)OC(OC5C(CO)OC(OC6C(CO)OC(OC7C(CO)OC(OC1C(O)C2O)C(O)C7O)C(O)C6O)C(O)C5O)C(O)C4O)C(O)C3O)NC(=O)CCOCCOCCOCCOCCNC(=O)CCC(=O)N1Cc2ccccc2C#Cc2ccccc21)C(=O)N[C@@H](CCCNC(N)=O)C(=O)Nc1ccc2c(c1)[C@@]1(C)CCC[C@](C)(C(=O)NC(=O)[C@@]3(C)CCC[C@]4(C)c5cc(N)ccc5CC[C@@H]34)[C@@H]1CC2 (stereo partly drawn) [LP2]
Solubility in water
  solubility: < 100 µg/mL

## C[C@]1(C(=O)NC(=O)[C@@]2(C)CCC[C@]3(C)c4cc(O)ccc4CC[C@@H]23)CCC[C@]2(C)c3cc(N)ccc3CC[C@@H]12 [P1, (1S,4aS,10aR)-N-[(1S,4aS,10aR)-6-Amino-1,4a-dimethyl-1,2,3,4,4a,9,10,10a-octahydrophenanthrene-1-carbonyl]-6-hydroxy-1,4a-dimethyl-1,2,3,4,4a,9,10,10a-octahydrophenanthrene-1-carboxamide]
LXR [1]
  EC50: 0.191 nM
  S/N: 11.9
THP-1; [4]
  EC50: 0.02 nM
THP-1; [5]
  EC50: 0.02 nM

## C[C@]1(C(=O)NC(=O)[C@@]2(C)CCC[C@]3(C)c4cc(N)ccc4CC[C@@H]23)CCC[C@]2(C)c3cc(N)ccc3CC[C@@H]12 [P2, (1S,4aS,10aR)-6-Amino-N-((1S,4aS,10aR)-6-amino-1,4a-dimethyl-1,2,3,4,4a,9,10,10a-octahydrophenanthrene-1-carbonyl)-1,4a-dimethyl-1,2,3,4,4a,9,10,10a-octahydrophenanthrene-1-carboxamide]
LXR [1]
  EC50: 0.45 nM
  S/N: 13.1
THP-1; [4]
  EC50: 0.014 nM
THP-1; [5]
  EC50: 0.014 nM

## C[C@H](N)C(=O)Nc1ccc2c(c1)[C@@]1(C)CCC[C@](C)(C(=O)NC(=O)[C@@]3(C)CCC[C@]4(C)c5cc(N)ccc5CC[C@@H]34)[C@@H]1CC2 [P13, (1S,4aS,10aR)-N-[(1S,4aS,10aR)-6-amino-1,4a-dimethyl-1,2,3,4,4a,9,10,10a-octahydrophenanthrene-1-carbonyl]-6-[(2S)-2-aminopropanamido]-1,4a-dimethyl-1,2,3,4,4a,9,10,10a-octahydrophenanthrene-1-carboxamide]
LXR [1]
  EC50: 0.0788 nM
  S/N: 11.9

## C[C@]1(C(=O)NC(=O)[C@@]2(C)CCC[C@]3(C)c4cc(NC(=O)CO)ccc4CC[C@@H]23)CCC[C@]2(C)c3cc(N)ccc3CC[C@@H]12 [P14, (1S,4aS,10aR)-N-[(1S,4aS,10aR)-6-(2-hydroxyacetamido)-1,4a-dimethyl-1,2,3,4,4a,9,10,10a-octahydrophenanthrene-1-carbonyl]-6-amino-1,4a-dimethyl-1,2,3,4,4a,9,10,10a-octahydrophenanthrene-1-carboxamide]
LXR [1]
  EC50: 0.152 nM
  S/N: 10.8

## CC(C)(C)OC(=O)Nc1ccc2c(c1)[C@@]1(C)CCC[C@](C)(C(=O)NC(=O)[C@@]3(C)CCC[C@]4(C)c5cc(O)ccc5CC[C@@H]34)[C@@H]1CC2 [P15, tert-Butyl N-[(4bS,8S,8aR)-8-({[(1S,4aS,10aR)-6-hydroxy-1,4a-dimethyl-1,2,3,4,4a,9,10,10a-octahydrophenanthren-1-yl]formamido}carbonyl)-4b,8-dimethyl-4b,5,6,7,8,8a,9,10-octahydrophenanthren-3-yl]carbamate]
LXR [1]
  EC50: 72.9 nM
  S/N: 8.8

## C[C@H](NC(=O)[C@@H](N)CCC(=O)O)C(=O)Nc1ccc2c(c1)[C@@]1(C)CCC[C@](C)(C(=O)NC(=O)[C@@]3(C)CCC[C@]4(C)c5cc(O)ccc5CC[C@@H]34)[C@@H]1CC2 [P16, (4S)-4-Amino-4-{[(1S)-1-{[(4bS,8S,8aR)-8-({[(1S,4aS,10aR)-6-hydroxy-1,4a-dimethyl-1,2,3,4,4a,9,10,10a-octahydrophenanthren-1-yl]formamido}carbonyl)-4b,8-dimethyl-4b,5,6,7,8,8a,9,10-octahydrophenanthren-3-yl]carbamoyl}ethyl]carbamoyl}butanoic acid]
LXR [1]
  EC50: 0.508 nM
  S/N: 11.5

## C[C@]1(C(=O)NC(=O)[C@@]2(C)CCC[C@]3(C)c4cc(NC(=O)CO)ccc4CC[C@@H]23)CCC[C@]2(C)c3cc(O)ccc3CC[C@@H]12 [P17, (1S,4aS,10aR)-N-[(1S,4aS,10aR)-6-(2-hydroxyacetamido)-1,4a-dimethyl-1,2,3,4,4a,9,10,10a-octahydrophenanthrene-1-carbonyl]-6-hydroxy-1,4a-dimethyl-1,2,3,4,4a,9,10,10a-octahydrophenanthrene-1-carboxamide]
LXR [1]
  EC50: 1.03 nM
  S/N: 12.5

## C[C@]1(C(=O)NC(=O)[C@@]2(C)CCC[C@]3(C)c4cc(NC(=O)COCNC(=O)CN)ccc4CC[C@@H]23)CCC[C@]2(C)c3cc(O)ccc3CC[C@@H]12 [P18, (1S,4aS,10aR)-N-[(1S,4aS,10aR)-6-{2-[(2-aminoacetamido)methoxy]acetamido}-1,4a-dimethyl-1,2,3,4,4a,9,10,10a-octahydrophenanthrene-1-carbonyl]-6-hydroxy-1,4a-dimethyl-1,2,3,4,4a,9,10,10a-octahydrophenanthrene-1-carboxamide]
LXR [1]
  EC50: 2.78 nM
  S/N: 11.5

## C[C@]1(C(=O)NC(=O)[C@@]2(C)CCC[C@]3(C)c4cc(N)c(O)cc4CC[C@@H]23)CCC[C@]2(C)c3cc(O)ccc3CC[C@@H]12 [P19, (1S,4aS,10aR)-N-[(1S,4aS,10aR)-6-amino-7-hydroxy-1,4a-dimethyl-1,2,3,4,4a,9,10,10a-octahydrophenanthrene-1-carbonyl]-6-hydroxy-1,4a-dimethyl-1,2,3,4,4a,9,10,10a-octahydrophenanthrene-1-carboxamide]
LXR [1]
  EC50: 0.564 nM
  S/N: 11.4

## CNCCN(CCOCCO)C(=O)Oc1ccc2c(c1)[C@@]1(C)CCC[C@](C)(C(=O)NC(=O)[C@@]3(C)CCC[C@]4(C)c5cc(N)ccc5CC[C@@H]34)[C@@H]1CC2.Cl.Cl [compound 142, (4bS,8S,8aR)-8-((1S,4aS,10aR)-6-Amino-1,4a-dimethyl-1,2,3,4,4a,9,10,10a-octahydrophenanthrene-1-carbonylcarbamoyl)-4b,8-dimethyl-4b,5,6,7,8,8a,9,10-octahydrophenanthren-3-yl 2-(2-hydroxyethoxy)ethyl(2-(methylamino)ethyl)carbamate]
[2]
  stability: not stable

B1: H1H21234N-N297Q-LP1 (conjugate)
VH: QVQLQESGPGLVKPSETLSLTCTVTGGSISRNYWSWIRQPPGKGLEWIGYIYYSGSIDYNPSLKSRVTISVDTSKNQFSLKLSSMTAADTAVYYCARDRWNWKYGMDVWGQGTTVIVSS
VL: EIVLTQSPGTLSLSPGERATLSCRASQTVRNNYLAWYHQKPGQAPRLLIYGASSRATGIPDRFSGSGSGTDFTLTISRLEPEDFTVYYCHQYGNSPWTFGQGTKMEIKR
LXR [3]
  EC50: 0.738 nM
  S/N: 11.8
THP-1; after 24 hours, read-out: cholesterol efflux EC50
  EC50: 0.098 nM
